Several values for one entry are separate records, joined by “and”; a condition that tells them apart may be missing. Identical values can stand only once.
Experiments:
WT ELIC [1] = test: Tryptophan fluorescence emission spectrum with and without agonist; type: biochemical, Erwinia chrysanthemi; conditions: WT 30 mM Cys
Protocol: To measure the tryptophan (Trp) fluorescence emission of ELIC, WT or W206F ELIC was diluted to 3 ml (0.02 mg/ml) and an emission spectrum was collected in a quartz fluorescence cell using a Fluoromax Plus Spectrofluorometer (Horiba Scientific). […] Trp fluorescence measurements with rapid mixing of agonist was carried out using the SX20 stopped-flow spectrofluorometer, outfitted with a 295 nm LED excitation source. Purified ELIC was diluted to 0.1 mg/ml in Trp Stopped-flow Buffer A (10 mM Tris pH 7.5, 100 mM NaCl, 0.05% DDM). A single mixing experiment was performed by mixing ELIC with equal volumes of Buffer A + propylamine. Propylamine was prepared at varying concentrations at 2x the final concentration. The instrument dead time was ~1 ms, enabling capture of most of the time course of change in Trp fluorescence. The time course of decrease in Trp fluorescence after rapid mixing with propylamine was fit to a single exponential to obtain a time constant for the rate of decrease and a measure of the extent of decrease. All replicates were taken from distinct samples.

WT ELIC [2] = test: Tryptophan stopped-flow fluorescence measurements (rapid mixing with agonist, DDM); type: biochemical, Erwinia chrysanthemi; conditions: for Normalized change in TRP fluorescence: single experiments
Protocol: To measure the tryptophan (Trp) fluorescence emission of ELIC, WT or W206F ELIC was diluted to 3 ml (0.02 mg/ml) and an emission spectrum was collected in a quartz fluorescence cell using a Fluoromax Plus Spectrofluorometer (Horiba Scientific). Excitation was set at 295 nm and an emission spectrum was collected from 320 to 380 nm. Trp fluorescence measurements with rapid mixing of agonist was carried out using the SX20 stopped-flow spectrofluorometer, outfitted with a 295 nm LED excitation source. Purified ELIC was diluted to 0.1 mg/ml in Trp Stopped-flow Buffer A (10 mM Tris pH 7.5, 100 mM NaCl, 0.05% DDM). A single mixing experiment was performed by mixing ELIC with equal volumes of Buffer A + propylamine. Propylamine was prepared at varying concentrations at 2x the final concentration. The instrument dead time was ~1 ms, enabling capture of most of the time course of change in Trp fluorescence. The time course of decrease in Trp fluorescence after rapid mixing with propylamine was fit to a single exponential to obtain a time constant for the rate of decrease and a measure of the extent of decrease. All replicates were taken from distinct samples.

SMILES: NCCS [cysteamine]
- Tryptophan fluorescence emission intensity (WT ELIC [1]; wavelength 320): 804590
- Tryptophan fluorescence emission intensity (WT ELIC [1]; wavelength 321): 840110
- Tryptophan fluorescence emission intensity (WT ELIC [1]; wavelength 322): 860020
- Tryptophan fluorescence emission intensity (WT ELIC [1]; wavelength 323): 881470
- Tryptophan fluorescence emission intensity (WT ELIC [1]; wavelength 324): 898170
- Tryptophan fluorescence emission intensity (WT ELIC [1]; wavelength 325): 925090
- Tryptophan fluorescence emission intensity (WT ELIC [1]; wavelength 327): 958460
- Tryptophan fluorescence emission intensity (WT ELIC [1]; wavelength 328): 977560
- Tryptophan fluorescence emission intensity (WT ELIC [1]; wavelength 329): 1001430
- Tryptophan fluorescence emission intensity (WT ELIC [1]; wavelength 330): 1017700
- Tryptophan fluorescence emission intensity (WT ELIC [1]; wavelength 331): 1038960
- Tryptophan fluorescence emission intensity (WT ELIC [1]; wavelength 332): 1051130
- Tryptophan fluorescence emission intensity (WT ELIC [1]; wavelength 333): 1064180
- Tryptophan fluorescence emission intensity (WT ELIC [1]; wavelength 334): 1076000
- Tryptophan fluorescence emission intensity (WT ELIC [1]; wavelength 335): 1094750
- Tryptophan fluorescence emission intensity (WT ELIC [1]; wavelength 336): 1105230
- Tryptophan fluorescence emission intensity (WT ELIC [1]; wavelength 337): 1102570
- Tryptophan fluorescence emission intensity (WT ELIC [1]; wavelength 338): 1110270
- Tryptophan fluorescence emission intensity (WT ELIC [1]; wavelength 339): 1107370
- Tryptophan fluorescence emission intensity (WT ELIC [1]; wavelength 340): 1100850
- Tryptophan fluorescence emission intensity (WT ELIC [1]; wavelength 341): 1109610
- Tryptophan fluorescence emission intensity (WT ELIC [1]; wavelength 342): 1105480
- Tryptophan fluorescence emission intensity (WT ELIC [1]; wavelength 343): 1098150
- Tryptophan fluorescence emission intensity (WT ELIC [1]; wavelength 344): 1095000
- Tryptophan fluorescence emission intensity (WT ELIC [1]; wavelength 345): 1092160
- Tryptophan fluorescence emission intensity (WT ELIC [1]; wavelength 346): 1088360
- Tryptophan fluorescence emission intensity (WT ELIC [1]; wavelength 347): 1077030
- Tryptophan fluorescence emission intensity (WT ELIC [1]; wavelength 348): 1068840
- Tryptophan fluorescence emission intensity (WT ELIC [1]; wavelength 349): 1066310
- Tryptophan fluorescence emission intensity (WT ELIC [1]; wavelength 350): 1055290
- Tryptophan fluorescence emission intensity (WT ELIC [1]; wavelength 351): 1041270
- Tryptophan fluorescence emission intensity (WT ELIC [1]; wavelength 352): 1036270
- Tryptophan fluorescence emission intensity (WT ELIC [1]; wavelength 353): 1015310
- Tryptophan fluorescence emission intensity (WT ELIC [1]; wavelength 354): 1003150
- Tryptophan fluorescence emission intensity (WT ELIC [1]; wavelength 355): 990040
- Tryptophan fluorescence emission intensity (WT ELIC [1]; wavelength 356): 980580
- Tryptophan fluorescence emission intensity (WT ELIC [1]; wavelength 357): 950350
- Tryptophan fluorescence emission intensity (WT ELIC [1]; wavelength 358): 943630
- Tryptophan fluorescence emission intensity (WT ELIC [1]; wavelength 359): 918190
- Tryptophan fluorescence emission intensity (WT ELIC [1]; wavelength 360): 914380
- Tryptophan fluorescence emission intensity (WT ELIC [1]; wavelength 361): 899440
- Tryptophan fluorescence emission intensity (WT ELIC [1]; wavelength 362): 877520
- Tryptophan fluorescence emission intensity (WT ELIC [1]; wavelength 363): 850800
- Tryptophan fluorescence emission intensity (WT ELIC [1]; wavelength 364): 821470
- Tryptophan fluorescence emission intensity (WT ELIC [1]; wavelength 365): 795670
- Tryptophan fluorescence emission intensity (WT ELIC [1]; wavelength 366): 776390
- Tryptophan fluorescence emission intensity (WT ELIC [1]; wavelength 367): 752920
- Tryptophan fluorescence emission intensity (WT ELIC [1]; wavelength 368): 732340
- Tryptophan fluorescence emission intensity (WT ELIC [1]; wavelength 369): 720880
- Tryptophan fluorescence emission intensity (WT ELIC [1]; wavelength 370): 691880
- Tryptophan fluorescence emission intensity (WT ELIC [1]; wavelength 371): 677380
- Tryptophan fluorescence emission intensity (WT ELIC [1]; wavelength 372): 661530
- Tryptophan fluorescence emission intensity (WT ELIC [1]; wavelength 373): 643370
- Tryptophan fluorescence emission intensity (WT ELIC [1]; wavelength 374): 622610
- Tryptophan fluorescence emission intensity (WT ELIC [1]; wavelength 375): 605580
- Tryptophan fluorescence emission intensity (WT ELIC [1]; wavelength 376): 584360
- Tryptophan fluorescence emission intensity (WT ELIC [1]; wavelength 377): 567600
- Tryptophan fluorescence emission intensity (WT ELIC [1]; wavelength 378): 558770
- Tryptophan fluorescence emission intensity (WT ELIC [1]; wavelength 379): 531360
- Tryptophan fluorescence emission intensity (WT ELIC [1]; wavelength 380): 517880
- Tryptophan fluorescence emission intensity (WT ELIC [1]; wavelength 381): 499820
- Tryptophan fluorescence emission intensity (WT ELIC [1]; wavelength 382): 482620
- Tryptophan fluorescence emission intensity (WT ELIC [1]; wavelength 383): 465090
- Tryptophan fluorescence emission intensity (WT ELIC [1]; wavelength 384): 451150
- Tryptophan fluorescence emission intensity (WT ELIC [1]; wavelength 385): 428430
- Tryptophan fluorescence emission intensity (WT ELIC [1]; wavelength 386): 420060
- Tryptophan fluorescence emission intensity (WT ELIC [1]; wavelength 387): 400770
- Tryptophan fluorescence emission intensity (WT ELIC [1]; wavelength 388): 385350
- Tryptophan fluorescence emission intensity (WT ELIC [1]; wavelength 389): 381600
- Tryptophan fluorescence emission intensity (WT ELIC [1]; wavelength 390): 360170
- Tryptophan fluorescence emission intensity (WT ELIC [1]; wavelength 391): 346400
- Tryptophan fluorescence emission intensity (WT ELIC [1]; wavelength 392): 340740
- Tryptophan fluorescence emission intensity (WT ELIC [1]; wavelength 393): 327660
- Tryptophan fluorescence emission intensity (WT ELIC [1]; wavelength 394): 316470
- Tryptophan fluorescence emission intensity (WT ELIC [1]; wavelength 395): 301980
- Tryptophan fluorescence emission intensity (WT ELIC [1]; wavelength 396): 291020
- Tryptophan fluorescence emission intensity (WT ELIC [1]; wavelength 397): 277640
- Tryptophan fluorescence emission intensity (WT ELIC [1]; wavelength 398): 265940
- Tryptophan fluorescence emission intensity (WT ELIC [1]; wavelength 399): 253020
- Tryptophan fluorescence emission intensity (WT ELIC [1]; wavelength 400): 247580
- Tryptophan fluorescence emission intensity (WT ELIC [1]; wavelength 401): 237600
- Tryptophan fluorescence emission intensity (WT ELIC [1]; wavelength 402): 233050
- Tryptophan fluorescence emission intensity (WT ELIC [1]; wavelength 403): 223960
- Tryptophan fluorescence emission intensity (WT ELIC [1]; wavelength 404): 210930
- Tryptophan fluorescence emission intensity (WT ELIC [1]; wavelength 405): 205250
- Tryptophan fluorescence emission intensity (WT ELIC [1]; wavelength 406): 197950
- Tryptophan fluorescence emission intensity (WT ELIC [1]; wavelength 407): 191160
- Tryptophan fluorescence emission intensity (WT ELIC [1]; wavelength 408): 187280
- Tryptophan fluorescence emission intensity (WT ELIC [1]; wavelength 409): 181840
- Tryptophan fluorescence emission intensity (WT ELIC [1]; wavelength 410): 170220
- Tryptophan fluorescence emission intensity (WT ELIC [1]; wavelength 411): 167400
- Tryptophan fluorescence emission intensity (WT ELIC [1]; wavelength 412): 162070
- Tryptophan fluorescence emission intensity (WT ELIC [1]; wavelength 413): 154720
- Tryptophan fluorescence emission intensity (WT ELIC [1]; wavelength 414): 150730
- Tryptophan fluorescence emission intensity (WT ELIC [1]; wavelength 415): 146270
- Tryptophan fluorescence emission intensity (WT ELIC [1]; wavelength 416): 141050
- Tryptophan fluorescence emission intensity (WT ELIC [1]; wavelength 417): 136250
- Tryptophan fluorescence emission intensity (WT ELIC [1]; wavelength 418): 131260
- Tryptophan fluorescence emission intensity (WT ELIC [1]; wavelength 419): 129580
- Tryptophan fluorescence emission intensity (WT ELIC [1]; wavelength 420): 125310

SMILES: CCCN [propylamine]
- time constant of TRP fluorescence decrease (WT ELIC [2]; 10 mM propylamine, DDM): 9.9 ± 0.6 ms
- Normalized change in TRP fluorescence, Average (WT ELIC [2]; DDM, Propylamine 0.3 mM): 0.01079
- Normalized change in TRP fluorescence, Average (WT ELIC [2]; DDM, Propylamine 1 mM): 0.08703
- Normalized change in TRP fluorescence, Average (WT ELIC [2]; DDM, Propylamine 3 mM): 0.49
- Normalized change in TRP fluorescence (WT ELIC [2]; DDM, Propylamine 3 mM): 0.3909 and 0.6901 and 0.389
- Normalized change in TRP fluorescence, Average (WT ELIC [2]; DDM, Propylamine 10 mM): 0.7765
- Normalized change in TRP fluorescence (WT ELIC [2]; DDM, Propylamine 10 mM): 0.6381 and 0.8944 and 0.797
- Normalized change in TRP fluorescence, Average (WT ELIC [2]; DDM, Propylamine 30 mM): 0.9154
- Normalized change in TRP fluorescence (WT ELIC [2]; DDM, Propylamine 30 mM): 0.9392 and 0.8561 and 0.951
- Normalized change in TRP fluorescence, Average (WT ELIC [2]; DDM, Propylamine 100 mM): 1
- Normalized change in TRP fluorescence (WT ELIC [2]; DDM, Propylamine 100 mM): 1
- Hill n of normalized change in TRP fluorescence (WT ELIC [2]; ELIC in DDM): 1.6 ± 0.3
- EC50 (WT ELIC [2]; ELIC in DDM, Hill fit, read-out: EC50 of normalized change in TRP fluorescence): 4.3 ± 0.8 mM
- rate of decrease in tryptophan fluorescence relative to channel opening (fold faster) (WT ELIC [2]; vs Tl+ flux in 2:1:1 or POPC liposomes): 2–4 ×
